# Test results published in the supplement of paper PMC11061612.
# Tests used:
# Test in all cases: Bliss excess, mean over the matrix (fraction); higher = more synergy
# [1] = tested on: BFTC-905 (Bladder Carcinoma)
# Procedure, shortened: (§1)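 Bliss excess equals the observed combination effect minus the expected value EA + EB − EA·EB, where EA and EB are the effects of each agent alone. Combination Emax is the second-highest inhibition within the matrix. Inhibition was scaled from CellTiter-Glo 2.0 luminescence, with 0 set by vehicle wells and 1 by blank wells, after 72 hours of two-drug dosing of cells plated in 1536-well plates.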
# [2] = tested on: BL-41 (Burkitt's Lymphoma)
# Procedure, shortened: as §1
# [3] = tested on: CAMA-1 (Breast Carcinoma)
# Procedure, shortened: as §1
# [4] = tested on: CHP-212 (Neuroblastoma)
# Procedure, shortened: as §1
# [5] = tested on: ES1 (Ewing's Sarcoma)
# Procedure, shortened: as §1
# [6] = tested on: ES8 (Ewing's Sarcoma)
# Procedure, shortened: as §1
# [7] = tested on: GR-ST (B-Lymphoblastic Leukemia)
# Procedure, shortened: as §1
# [8] = tested on: HL-60 (Acute Myeloid Leukemia)
# Procedure, shortened: as §1
# [9] = tested on: KARPAS-45 (T-Lymphoblastic Leukemia)
# Procedure, shortened: as §1
# [10] = tested on: KM12 (Colorectal Carcinoma)
# Procedure, shortened: as §1
# [11] = tested on: MEL-JUSO (Melanoma)
# Procedure, shortened: as §1
# [12] = tested on: MKN28 (Gastric Carcinoma)
# Procedure, shortened: as §1
# [13] = tested on: MOLT-16 (T-Lymphoblastic Leukemia)
# Procedure, shortened: as §1
# [14] = tested on: MS751 (Cervical Carcinoma)
# Procedure, shortened: as §1
# [15] = tested on: NCI-H2818 (Mesothelioma)
# Procedure, shortened: as §1
# [16] = tested on: NCI-H847 (Small Cell Lung Carcinoma)
# Procedure, shortened: as §1
# [17] = tested on: SU-DHL-8 (B-Cell Non-Hodgkin's Lymphoma)
# Procedure, shortened: as §1
# [18] = tested on: SW1417 (Colorectal Carcinoma)
# Procedure, shortened: as §1
# [19] = tested on: WIL2-NS (Non-Cancerous)
# Procedure, shortened: as §1
# [20] = tested on: WM-115 (Melanoma)
# Procedure, shortened: as §1
Compound,Bliss excess [1],Bliss excess [2],Bliss excess [3],Bliss excess [4],Bliss excess [5],Bliss excess [6],Bliss excess [7],Bliss excess [8],Bliss excess [9],Bliss excess [10],Bliss excess [11],Bliss excess [12],Bliss excess [13],Bliss excess [14],Bliss excess [15],Bliss excess [16],Bliss excess [17],Bliss excess [18],Bliss excess [19],Bliss excess [20]
"Cc1cc2ncnn2cc1Nc1ncc2c(n1)n(C1CCOCC1)c(=O)n2C [AZD7648] + CN(C)CCCOc1ccc(-c2ccc3ncc4c(c3c2)n(C2CCOCC2)c(=O)n4C)cn1 [AZD0156] (first compound max 10 µM, 7x7, partner max 1 µM)",0.0314,0.0154,-0.0238,0.0036,0.0136,0.0803,-0.0687,0.0176,-0.0274,0.0312,-0.0029,-0.0127,0.0841,0.0217,-0.0055,-0.0113,0.016,-0.0262,-0.0264,-0.0098
"Cc1c2c(nn1C)CSCc1cc(n(C)n1)CSc1cc(c3ccccc3c1)OCCCc1c(C(=O)O)n(C)c3c-2c(Cl)ccc13 [AZD5991] + Cc1cc2ncnn2cc1Nc1ncc2c(n1)n(C1CCOCC1)c(=O)n2C [AZD7648] (first compound max 1 µM, 7x7, partner max 10 µM)",-0.0282,0.029,-0.0456,0.0203,-0.013,0.0038,-0.149,0.0014,-0.0163,-0.0073,-0.0453,0.0046,-0.023,-0.0396,-0.0757,0.0083,-0.0664,0.0054,0.0039,-0.11
"CN(CCO)CC[C@H](CSc1ccccc1)Nc1ccc(S(=O)(=O)NC(=O)c2ccc(N3CCC([C@@H](O)c4ccccc4-c4ccc(Cl)cc4)CC3)cc2)cc1S(=O)(=O)C(F)(F)F [AZD4320] + CCN(CCO)CCCOc1ccc2c(Nc3cc(CC(=O)Nc4cccc(F)c4)[nH]n3)ncnc2c1 [AZD2811] (first compound max 1 µM, 7x7, partner max 1 µM)",0.121,-0.0172,0.0961,0.0016,0.142,0.0276,-0.0272,-0.0281,-0.0137,0.0173,0.0289,-0.0107,-0.0049,0.0064,-0.0555,0.0014,-0.013,-0.0306,0.0006,-0.0003
"Cc1cc2ncnn2cc1Nc1ncc2c(n1)n(C1CCOCC1)c(=O)n2C [AZD7648] + CCN(CCO)CCCOc1ccc2c(Nc3cc(CC(=O)Nc4cccc(F)c4)[nH]n3)ncnc2c1 [AZD2811] (first compound max 10 µM, 7x7, partner max 1 µM)",0.0469,0.0668,-0.0677,-0.0162,0.0855,-0.011,-0.0705,-0.0639,-0.0341,0.004,0.0461,0.0124,0.0058,-0.0094,0.0283,-0.0211,0.038,-0.106,0.0024,0.0205
"COc1cccc(OCCCN)c1-c1cc(Nc2cnc(C#N)cn2)n[nH]1 [Prexasertib] + CN(C)CCCOc1ccc(-c2ccc3ncc4c(c3c2)n(C2CCOCC2)c(=O)n4C)cn1 [AZD0156] (first compound max 1 µM, 7x7, partner max 1 µM)",0.0125,-0.0134,0.0046,-0.0377,0.0127,-0.011,-0.0287,-0.0026,-0.0485,-0.0095,0.0301,-0.0286,0.05,0.02,-0.0871,-0.0124,-0.0553,-0.0473,-0.0281,-0.0035
"CN(CCO)CC[C@H](CSc1ccccc1)Nc1ccc(S(=O)(=O)NC(=O)c2ccc(N3CCC([C@@H](O)c4ccccc4-c4ccc(Cl)cc4)CC3)cc2)cc1S(=O)(=O)C(F)(F)F [AZD4320] + Cn1cnc2c(F)c(Nc3ccc(Br)cc3Cl)c(C(=O)NOCCO)cc21 [Selumetinib] (first compound max 1 µM, 7x7, partner max 3 µM)",-0.0411,0.039,0.0043,-0.0108,0.0147,-0.0479,-0.0417,0.0259,-0.0248,0.0423,-0.0081,0.0272,-0.0335,0.0636,-0.0136,0.0247,-0.102,0.056,0.0074,0.102
"Cc1c2c(nn1C)CSCc1cc(n(C)n1)CSc1cc(c3ccccc3c1)OCCCc1c(C(=O)O)n(C)c3c-2c(Cl)ccc13 [AZD5991] + Cn1cnc2c(F)c(Nc3ccc(Br)cc3Cl)c(C(=O)NOCCO)cc21 [Selumetinib] (first compound max 1 µM, 7x7, partner max 3 µM)",0.0136,-0.0206,-0.035,-0.0136,0.0123,-0.0171,-0.0495,0.0587,0.011,-0.0063,0.0046,-0.0063,-0.0205,0.067,-0.0458,0.042,-0.074,-0.0015,-0.0263,-0.0114
"CN(C)CCCOc1ccc(-c2ccc3ncc4c(c3c2)n(C2CCOCC2)c(=O)n4C)cn1 [AZD0156] + CCN(CCO)CCCOc1ccc2c(Nc3cc(CC(=O)Nc4cccc(F)c4)[nH]n3)ncnc2c1 [AZD2811] (first compound max 1 µM, 7x7, partner max 1 µM)",0.0116,0.0177,-0.0318,-0.0254,0.148,-0.0153,0.0033,-0.0762,-0.0515,-0.0163,-0.0039,-0.0295,-0.0087,-0.0235,-0.0491,-0.0122,0.0377,-0.0418,-0.003,-0.0368
"CN(CCO)CC[C@H](CSc1ccccc1)Nc1ccc(S(=O)(=O)NC(=O)c2ccc(N3CCC([C@@H](O)c4ccccc4-c4ccc(Cl)cc4)CC3)cc2)cc1S(=O)(=O)C(F)(F)F [AZD4320] + C1CN(CCC1(C(=O)N[C@@H](CCO)C2=CC=C(C=C2)Cl)N)C3=NC=NC4=C3C=CN4 [Capivasertib] (first compound max 1 µM, 7x7, partner max 3 µM)",-0.0552,-0.0146,-0.0365,-0.0667,0.0027,-0.0427,0.0039,-0.0438,0.0265,-0.0572,-0.0472,-0.0404,-0.0201,-0.009,-0.126,0.0226,-0.0454,-0.0671,0.0219,0.0144
"CC1(C)CCC(CN2CCN(c3ccc(C(=O)NS(=O)(=O)c4ccc(NCC5CCOCC5)c([N+](=O)[O-])c4)c(Oc4cnc5[nH]ccc5c4)c3)CC2)=C(c2ccc(Cl)cc2)C1 [Venetoclax] + Cn1cnc2c(F)c(Nc3ccc(Br)cc3Cl)c(C(=O)NOCCO)cc21 [Selumetinib] (first compound max 1 µM, 7x7, partner max 3 µM)",-0.0116,0.0065,-0.0332,-0.0011,-0.0068,-0.0411,-0.0318,0.0694,0.0372,-0.0213,-0.0481,-0.0012,0.016,0.0072,-0.0491,-0.0428,-0.0738,-0.0165,-0.0318,-0.0472
"CC1(C)CCC(CN2CCN(c3ccc(C(=O)NS(=O)(=O)c4ccc(NCC5CCOCC5)c([N+](=O)[O-])c4)c(Oc4cnc5[nH]ccc5c4)c3)CC2)=C(c2ccc(Cl)cc2)C1 [Venetoclax] + CCN(CCO)CCCOc1ccc2c(Nc3cc(CC(=O)Nc4cccc(F)c4)[nH]n3)ncnc2c1 [AZD2811] (first compound max 1 µM, 7x7, partner max 1 µM)",-0.01,-0.137,-0.0198,-0.0499,0.0721,0.0092,-0.0505,-0.0385,-0.0373,0.0148,-0.0165,-0.0257,0.0239,0.0094,-0.0404,0.112,0.0103,-0.0567,0.0275,-0.0138
"CN(C)CCCOc1ccc(-c2ccc3ncc4c(c3c2)n(C2CCOCC2)c(=O)n4C)cn1 [AZD0156] + C[C@@H]1COCCN1C2=NC(=NC(=C2)C3(CC3)[S@](=N)(=O)C)C4=C5C=CNC5=NC=C4 [AZD6738] (first compound max 1 µM, 7x7, partner max 10 µM)",0.0463,0.0704,-0.0444,-0.0047,0.0554,0.0169,-0.0006,-0.0159,0.0333,0.0161,0.0108,-0.0092,-0.0399,-0.0221,-0.0511,-0.0116,0.0169,-0.0019,0.0131,-0.0565
"COc1cc2c(cc1OCCCCCOc1cc3c(cc1OC)C(=O)N1C=C(C)C[C@H]1C=N3)N=C[C@@H]1CC(C)=CN1C2=O [SG3199] + O=C(c1cc(Cc2n[nH]c(=O)c3ccccc23)ccc1F)N1CCN(C(=O)C2CC2)CC1 [Olaparib] (first compound max 0.001 µM, 7x7, partner max 10 µM)",-0.054,-0.0163,-0.0443,0.0046,0.0027,-0.0206,-0.0339,-0.034,-0.0076,-0.0301,-0.024,-0.0469,0.0336,-0.075,-0.0642,-0.0375,0.0547,-0.0472,-0.0239,-0.0494
"CN(C)CCCOc1ccc(-c2ccc3ncc4c(c3c2)n(C2CCOCC2)c(=O)n4C)cn1 [AZD0156] + C=CCn1c(=O)c2cnc(Nc3ccc(N4CCN(C)CC4)cc3)nc2n1-c1cccc(C(C)(C)O)n1 [AZD1775] (first compound max 1 µM, partner max 1 µM)",-0.0022,0.0047,-0.0726,-0.0165,-0.0018,-0.0464,-0.0229,-0.0177,-0.0182,-0.0223,0.0243,-0.0875,-0.0108,-0.0154,-0.0556,-0.0114,0.0032,-0.0213,0.0135,-0.0383
